Measured values published in PubChem BioAssay (NCI).
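The concentration for 50% growth inhibition is given as GI50. TGI is the concentration that stops growth completely.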

Experiments:
Experiment in all cases: NCI-60 cell line screen, 384-well format
MOLT-4 leukemia = system: MOLT-4 leukemia
NCI-H460 NSCLC = system: NCI-H460 NSCLC
UACC-257 melanoma = system: UACC-257 melanoma
NCI-H322M lung = system: NCI-H322M lung
SNB-75 CNS = system: SNB-75 CNS
UO-31 renal = system: UO-31 renal
M14 melanoma = system: M14 melanoma
DU-145 prostate = system: DU-145 prostate
NCI-H23 lung = system: NCI-H23 lung
A549 NSCLC = system: A549 NSCLC
T-47D breast = system: T-47D breast
CAKI-1 renal = system: CAKI-1 renal
SF-295 CNS = system: SF-295 CNS

| SMILES | GI50 (MOLT-4 leukemia) [µM] | TGI (MOLT-4 leukemia) [µM] | GI50 (NCI-H460 NSCLC) [µM] | TGI (NCI-H460 NSCLC) [µM] | GI50 (UACC-257 melanoma) [µM] | TGI (UACC-257 melanoma) [µM] | GI50 (NCI-H322M lung) [µM] | TGI (NCI-H322M lung) [µM] | GI50 (SNB-75 CNS) [µM] | TGI (SNB-75 CNS) [µM] | GI50 (UO-31 renal) [µM] | TGI (UO-31 renal) [µM] | GI50 (M14 melanoma) [µM] | TGI (M14 melanoma) [µM] | GI50 (DU-145 prostate) [µM] | TGI (DU-145 prostate) [µM] | GI50 (NCI-H23 lung) [µM] | TGI (NCI-H23 lung) [µM] | GI50 (A549 NSCLC) [µM] | TGI (A549 NSCLC) [µM] | further results |
| --- | --- | --- | --- | --- | --- | --- | --- | --- | --- | --- | --- | --- | --- | --- | --- | --- | --- | --- | --- | --- | --- |
| C[C@@H]1CN(C(=O)c2ccc(NC(=O)c3cc(O[C@H](C)c4c(Cl)ccc(F)c4Cl)c(N)nn3)cc2)C[C@H](C)N1 | 0.181 | 0.356 | 1 | 3.73 | 1.69 | 3.07 | 5.08 | 16.1 | 2.21 | 4.14 | 3.53 | 12.4 | 2.47 | 6.48 | 3.89 | 14.5 | 0.642 | 3.76 | 1.45 | 5 | GI50 (T-47D breast): 3.17 µM; TGI (T-47D breast): 8.97 µM; GI50 (CAKI-1 renal): 2.16 µM; TGI (CAKI-1 renal): 5.69 µM; GI50 (SF-295 CNS): 1.72 µM; TGI (SF-295 CNS): 5.81 µM |
| O=C1CC(c2ccc(N3CCOCC3)cc2)(c2ccsc2)NC(=O)C1Sc1ccccc1Cl (configuration not stated) | 9.17 | 22 | 9.07 | 98.5 | > 100 | > 100 | > 100 | > 100 | > 100 | > 100 | 33.7 | > 100 | 53.1 | > 100 | 53.9 | > 100 | > 95.8 | > 100 | > 80.4 | > 100 | GI50 (T-47D breast): 66 µM; TGI (T-47D breast): > 100 µM; GI50 (CAKI-1 renal): 52.7 µM; TGI (CAKI-1 renal): > 100 µM; GI50 (SF-295 CNS): 35.7 µM; TGI (SF-295 CNS): > 100 µM |
